According to patent US10894817B2, “Fatty acid modified urocortin-2 analogs for the treatment of diabetes and chronic kidney disease” (priority 2016, dated 2021):
Where two headings read alike, the source gives them in different places. Starred links: 1 amine or outer side, 2 acyl side, 3 side chain; linkers in the order of their positions; H or OH if unused. Non-standard residues stand in square brackets, D forms with d. Residues, ends and D or L forms follow the SMILES beside them. Groups on a side chain read outwards from the residue. *: point of attachment. C20 diacid = O=C(O)CCCCCCCCCCCCCCCCCCC(=O)*; C18 diacid = O=C(O)CCCCCCCCCCCCCCCCC(=O)*; γGlu = O=C(O)[C@H](CCC(=O)[*:2])N[*:1]; NMeI = CC[C@H](C)[C@H](NC)C(=O)O; AEEA = NCCOCCOCC(=O)O

Target: T1, human CRHR2b (Homo sapiens, UniProt Q13324)
T1 construct: expressed in transfected cells; host or cells: Chinese Hamster Ovary (CHO) cells, transient transfection
T1 sequence (Q13324 1-438 isoform Q13324-2): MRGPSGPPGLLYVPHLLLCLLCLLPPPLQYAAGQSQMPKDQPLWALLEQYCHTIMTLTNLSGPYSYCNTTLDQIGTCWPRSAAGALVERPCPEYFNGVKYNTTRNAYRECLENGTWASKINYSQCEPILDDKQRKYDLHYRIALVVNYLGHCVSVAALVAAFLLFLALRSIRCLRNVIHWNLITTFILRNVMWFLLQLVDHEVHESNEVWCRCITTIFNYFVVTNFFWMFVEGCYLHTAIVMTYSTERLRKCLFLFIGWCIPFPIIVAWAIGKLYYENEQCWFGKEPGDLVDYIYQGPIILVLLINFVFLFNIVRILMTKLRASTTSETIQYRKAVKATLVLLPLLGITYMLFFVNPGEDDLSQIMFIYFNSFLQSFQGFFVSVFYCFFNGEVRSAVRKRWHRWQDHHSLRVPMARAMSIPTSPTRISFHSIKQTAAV
Test: human CRHR2b cell-based cAMP assay
Settings: cAMP assay, read-out: hCRHR2b Average EC50
Method in brief: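 ED50 values are means ± SEM over several runs, curve-fitted from cAMP in pmol, calibrated against unlabeled-cAMP standards. Detection was HTRF competition, ratio 665/620 nm, after 30 min agonist exposure at 37 °C.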

[1] = Table 26, compounds of Example 9

| EC50 [1] [nM] | EC50 (CHO cells transfected with human CRHR2b, mean ± SEM of runs) [nM] | Compound |
| --- | --- | --- |
| 2.42 | – | CC[C@H](C)[C@H](N)C(=O)N[C@H](C(=O)N[C@@H](CC(C)C)C(=O)N[C@@H](CO)C(=O)N[C@@H](CC(C)C)C(=O)N[C@@H](CC(=O)O)C(=O)N[C@H](C(=O)N1CCC[C@H]1C(=O)N[C@H](C(=O)NCC(=O)N[C@@H](CC(C)C)C(=O)N[C@@H](CC(C)C)C(=O)N[C@@H](CCC(N)=O)C(=O)N[C@H](C(=O)N[C@@H](CC(C)C)C(=O)N[C@@H](CC(C)C)C(=O)N[C@@H](CCC(=O)O)C(=O)N[C@@H](CCC(N)=O)C(=O)N[C@@H](CCC(=O)O)C(=O)N[C@@H](CCCCN)C(=O)N[C@@H](CCC(N)=O)C(=O)N[C@@H](CCC(=O)O)C(=O)N[C@@H](CCCCN)C(=O)N[C@@H](CCC(=O)O)C(=O)N[C@@H](CCCCN)C(=O)N[C@@H](CCCCNC(=O)COCCOCCNC(=O)COCCOCCNC(=O)CC[C@H](NC(=O)CC[C@H](NC(=O)CCCCCCCCCCCCCCCCC(=O)O)C(=O)O)C(=O)O)C(=O)N[C@@H](CCC(N)=O)C(=O)N[C@@H](C)C(=O)N[C@H](C(=O)N[C@H](C(=O)N[C@@H](CC(N)=O)C(=O)N[C@@H](C)C(=O)N[C@@H](CCC(N)=O)C(=O)N[C@H](C(=O)N[C@@H](CC(C)C)C(=O)N[C@@H](C)C(=O)N[C@@H](CCC(N)=O)C(=O)N[C@H](C(N)=O)C(C)C)[C@@H](C)CC)[C@@H](C)O)[C@@H](C)O)[C@@H](C)CC)[C@@H](C)CC)C(C)C)C(C)C [Compound 51] (H-IVLSLDVPIGLLQILLEQEKQEKEKK([AEEA-AEEA-γGlu-γGlu-C18 diacid])QATTNAQILAQV-NH2) |
| 4.26 | – | CC[C@H](C)[C@H](N)C(=O)N[C@H](C(=O)N[C@@H](CC(C)C)C(=O)N[C@@H](CO)C(=O)N[C@@H](CC(C)C)C(=O)N[C@@H](CC(=O)O)C(=O)N[C@H](C(=O)N1CCC[C@H]1C(=O)N[C@H](C(=O)NCC(=O)N[C@@H](CC(C)C)C(=O)N[C@@H](CC(C)C)C(=O)N[C@@H](CCC(N)=O)C(=O)N[C@H](C(=O)N[C@@H](CC(C)C)C(=O)N[C@@H](CC(C)C)C(=O)N[C@@H](CCC(=O)O)C(=O)N[C@@H](CCC(N)=O)C(=O)N[C@@H](CCC(=O)O)C(=O)N[C@@H](CCCCN)C(=O)N[C@@H](CCC(N)=O)C(=O)N[C@@H](CCC(=O)O)C(=O)N[C@@H](CCCCN)C(=O)N[C@@H](CCC(=O)O)C(=O)N[C@@H](CCCCN)C(=O)N[C@@H](CCCCNC(=O)COCCOCCNC(=O)COCCOCCNC(=O)CC[C@H](NC(=O)CC[C@H](NC(=O)CCCCCCCCCCCCCCCCC(=O)O)C(=O)O)C(=O)O)C(=O)N[C@@H](CCC(N)=O)C(=O)N[C@@H](C)C(=O)N[C@H](C(=O)N[C@@H](CCC(=O)O)C(=O)N[C@@H](CC(N)=O)C(=O)N[C@@H](C)C(=O)N[C@@H](CCC(N)=O)C(=O)N[C@H](C(=O)N[C@@H](CC(C)C)C(=O)N[C@@H](C)C(=O)N[C@@H](CCC(N)=O)C(=O)N[C@H](C(N)=O)C(C)C)[C@@H](C)CC)[C@@H](C)O)[C@@H](C)CC)[C@@H](C)CC)C(C)C)C(C)C [Compound 54] (H-IVLSLDVPIGLLQILLEQEKQEKEKK([AEEA-AEEA-γGlu-γGlu-C18 diacid])QATENAQILAQV-NH2) |

The next lines start with the compound.

| Compound | EC50 [1] [nM] | EC50 (CHO cells transfected with human CRHR2b, mean ± SEM of runs) [nM] |
| --- | --- | --- |
| CC[C@H](C)[C@H](N)C(=O)N[C@H](C(=O)N[C@@H](CC(C)C)C(=O)N[C@@H](CO)C(=O)N[C@@H](CC(C)C)C(=O)N[C@@H](CC(=O)O)C(=O)N[C@H](C(=O)N1CCC[C@H]1C(=O)N[C@H](C(=O)NCC(=O)N[C@@H](CC(C)C)C(=O)N[C@@H](CC(C)C)C(=O)N[C@@H](CCC(N)=O)C(=O)N[C@H](C(=O)N[C@@H](CC(C)C)C(=O)N[C@@H](CC(C)C)C(=O)N[C@@H](CCC(=O)O)C(=O)N[C@@H](CCC(N)=O)C(=O)N[C@@H](CCC(=O)O)C(=O)N[C@@H](CCCCN)C(=O)N[C@@H](CCC(N)=O)C(=O)N[C@@H](CCC(=O)O)C(=O)N[C@@H](CCCCN)C(=O)N[C@@H](CCC(=O)O)C(=O)N[C@@H](CCCCN)C(=O)N[C@@H](CCC(N)=O)C(=O)N[C@@H](CCC(N)=O)C(=O)N[C@@H](C)C(=O)N[C@@H](CCCCNC(=O)COCCOCCNC(=O)COCCOCCNC(=O)CC[C@H](NC(=O)CC[C@H](NC(=O)CCCCCCCCCCCCCCCCC(=O)O)C(=O)O)C(=O)O)C(=O)N[C@H](C(=O)N[C@@H](CC(N)=O)C(=O)N[C@@H](C)C(=O)N[C@@H](CCC(N)=O)C(=O)N[C@H](C(=O)N[C@@H](CC(C)C)C(=O)N[C@@H](C)C(=O)N[C@@H](Cc1c[nH]cn1)C(=O)N[C@H](C(N)=O)C(C)C)[C@@H](C)CC)[C@@H](C)O)[C@@H](C)CC)[C@@H](C)CC)C(C)C)C(C)C [Compound 48] (H-IVLSLDVPIGLLQILLEQEKQEKEKQQAK([AEEA-AEEA-γGlu-γGlu-C18 diacid])TNAQILAHV-NH2) | 3.61 | – |
| CC[C@H](C)[C@H](NC)C(=O)N[C@H](C(=O)N[C@H](C(=O)N[C@@H](CO)C(=O)N[C@@H](CC(C)C)C(=O)N[C@@H](CC(=O)O)C(=O)N[C@H](C(=O)N1CCC[C@H]1C(=O)N[C@H](C(=O)NCC(=O)N[C@@H](CC(C)C)C(=O)N[C@@H](CC(C)C)C(=O)N[C@@H](CCC(N)=O)C(=O)N[C@H](C(=O)N[C@@H](CC(C)C)C(=O)N[C@H](C(=O)N[C@@H](CCC(=O)O)C(=O)N[C@@H](CCC(N)=O)C(=O)N[C@@H](CCC(=O)O)C(=O)N[C@@H](CCCCN)C(=O)N[C@@H](CCC(N)=O)C(=O)N[C@@H](CCC(=O)O)C(=O)N[C@@H](CCCCN)C(=O)N[C@@H](CCC(=O)O)C(=O)N[C@@H](CCCCN)C(=O)N[C@@H](CCC(N)=O)C(=O)N[C@@H](CCC(N)=O)C(=O)N[C@@H](C)C(=O)N[C@@H](CCCCNC(=O)COCCOCCNC(=O)COCCOCCNC(=O)CC[C@H](NC(=O)CC[C@H](NC(=O)CCCCCCCCCCCCCCCCCCC(=O)O)C(=O)O)C(=O)O)C(=O)N[C@H](C(=O)N[C@@H](CC(N)=O)C(=O)N[C@@H](C)C(=O)N[C@@H](CCC(=O)O)C(=O)N[C@H](C(=O)N[C@@H](CC(C)C)C(=O)N[C@@H](C)C(=O)N[C@@H](CCC(N)=O)C(=O)N[C@H](C(N)=O)C(C)C)[C@@H](C)CC)[C@@H](C)O)[C@@H](C)CC)[C@@H](C)CC)[C@@H](C)CC)C(C)C)[C@@H](C)O)C(C)C [Example 7] (H-[NMeI]VTSLDVPIGLLQILIEQEKQEKEKQQAK([AEEA-AEEA-γGlu-γGlu-C20 diacid])TNAEILAQV-NH2) | – | 0.94 ± 0.05 |
| CC[C@H](C)[C@H](NC)C(=O)N[C@H](C(=O)N[C@@H](CC(C)C)C(=O)N[C@@H](CO)C(=O)N[C@@H](CC(C)C)C(=O)N[C@@H](CC(=O)O)C(=O)N[C@H](C(=O)N1CCC[C@H]1C(=O)N[C@H](C(=O)NCC(=O)N[C@@H](CC(C)C)C(=O)N[C@@H](CC(C)C)C(=O)N[C@@H](CCC(N)=O)C(=O)N[C@H](C(=O)N[C@@H](CC(C)C)C(=O)N[C@@H](CC(C)C)C(=O)N[C@@H](CCC(=O)O)C(=O)N[C@@H](CCC(N)=O)C(=O)N[C@@H](CCC(=O)O)C(=O)N[C@@H](CCCCN)C(=O)N[C@@H](CCC(N)=O)C(=O)N[C@@H](CCC(=O)O)C(=O)N[C@@H](CCCCN)C(=O)N[C@@H](CCC(=O)O)C(=O)N[C@@H](CCCCN)C(=O)N[C@@H](CCC(N)=O)C(=O)N[C@@H](CCC(N)=O)C(=O)N[C@@H](C)C(=O)N[C@@H](CCCCNC(=O)CC[C@H](NC(=O)COCCOCCNC(=O)CC[C@H](NC(=O)CC[C@H](NC(=O)CCCCCCCCCCCCCCCCCCC(=O)O)C(=O)O)C(=O)O)C(=O)O)C(=O)N[C@@H](CCC(=O)O)C(=O)N[C@@H](CC(N)=O)C(=O)N[C@@H](C)C(=O)N[C@@H](CCC(=O)O)C(=O)N[C@H](C(=O)N[C@@H](CC(C)C)C(=O)N[C@@H](C)C(=O)N[C@@H](CCC(N)=O)C(=O)N[C@H](C(N)=O)C(C)C)[C@@H](C)CC)[C@@H](C)CC)[C@@H](C)CC)C(C)C)C(C)C [Compound 59] (H-[NMeI]VLSLDVPIGLLQILLEQEKQEKEKQQAK([γGlu-AEEA-γGlu-γGlu-C20 diacid])ENAEILAQV-NH2) | 2.62 | – |
